Key:
MdNCR1b [1] = test: product formation assay, varied NADPH […]; format: biochemical, Malus domestica; conditions: 100 µM naringenin chalcone, Bis-Tris propane 0.1 M, pH 3.0, 30 °C, 30 min
MdNCR1b [2] = test: product formation assay, varied naringenin chalcone […]; format: biochemical, Malus domestica; conditions: 400 µM NADPH, Bis-Tris propane 0.1 M, pH 3.0, 30 °C, 30 min; read-out: Km (apparent)

SMILES	Km (MdNCR1b [1]) [µM]	Km (MdNCR1b [2]) [µM]
NC(=O)C1=CN([C@@H]2O[C@H](COP(=O)(O)OP(=O)(O)OC[C@H]3O[C@@H](n4cnc5c(N)ncnc54)[C@H](OP(=O)(O)O)[C@@H]3O)[C@@H](O)[C@H]2O)C=CC1 [NADPH]	23.1 ± 9.4	
O=C(/C=C/c1ccc(O)cc1)c1c(O)cc(O)cc1O [compound 1, 2ʹ,4,4ʹ,6ʹ-tetrahydroxychalcone]		9.9 ± 2.6

From paper PMC11638483, “Naringenin chalcone carbon double-bond reductases mediate dihydrochalcone biosynthesis in apple leaves” (Plant Physiology, 2024)
